Laboratory results from ChEMBL document CHEMBL3045955, “Design, synthesis and structure-activity relationship of novel insecticidal dichloro-allyloxy-phenol derivatives containing substituted pyrazol-3-ols” (2013).

What was measured:
Format in all cases: functional
Settings in all cases: 72 h
Plutella xylostella [1] = assay: Insecticidal activity against third-instar larvae of Plutella xylostella (diamondback moth) fed on compound treated cabbage leaves assessed as mortality at 100 mg/l after 3 days relative to control
Plutella xylostella [2] = assay: Insecticidal activity against third-instar larvae of Plutella xylostella (diamondback moth) fed on compound treated cabbage leaves assessed as mortality at 25 mg/l after 3 days relative to control
Plutella xylostella [3] = assay: Insecticidal activity against third-instar larvae of Plutella xylostella (diamondback moth) fed on compound treated cabbage leaves assessed as mortality at 6.25 mg/l after 3 days relative to control

| SMILES | mortality at 100 µg/mL (Plutella xylostella [1]) [%] | mortality at 25 µg/mL (Plutella xylostella [2]) [%] | mortality at 6.25 µg/mL (Plutella xylostella [3]) [%] |
| --- | --- | --- | --- |
| Cc1ccc(-c2cc(OCCCOc3c(Cl)cc(OCC=C(Cl)Cl)cc3Cl)nn2C)cc1C | 80 | 50 | 0 |
| CCc1ccc(-c2cc(OCCCOc3c(Cl)cc(OCC=C(Cl)Cl)cc3Cl)nn2C)cc1 | 70 | 40 | 30 |
| Cn1nc(OCCCOc2c(Cl)cc(OCC=C(Cl)Cl)cc2Cl)cc1-c1ccc(Cl)cc1 | 100 | 100 | 65 |
| Cn1nc(OCCCOc2c(Cl)cc(OCC=C(Cl)Cl)cc2Cl)cc1-c1ccc(Cl)cc1Cl | 100 | 80 | 0 |
| Cc1ccc(-c2c(C)c(OCCOc3c(Cl)cc(OCC=C(Cl)Cl)cc3Cl)nn2C)cc1 | 17 | 0 | 0 |
| CCc1ccc(-c2c(C)c(OCCOc3c(Cl)cc(OCC=C(Cl)Cl)cc3Cl)nn2C)cc1 | 67 | 33 | 0 |
| Cc1ccc(-c2c(C)c(OCCCCOc3c(Cl)cc(OCC=C(Cl)Cl)cc3Cl)nn2C)cc1 | 100 | 50 | 42 |
| CCc1ccc(-c2c(C)c(OCCCCOc3c(Cl)cc(OCC=C(Cl)Cl)cc3Cl)nn2C)cc1 | 100 | 50 | 10 |
| Cc1c(OCCCOc2c(Cl)cc(OCC=C(Cl)Cl)cc2Cl)nn(C)c1-c1ccccc1 | 100 | 30 | 0 |
| Cc1ccc(-c2c(C)c(OCCCOc3c(Cl)cc(OCC=C(Cl)Cl)cc3Cl)nn2C)cc1 | 100 | 100 | 95 |
| Cc1ccc(-c2c(C)c(OCCCOc3c(Cl)cc(OCC=C(Cl)Cl)cc3Cl)nn2C)c(C)c1 | 90 | 60 | 30 |
| Cc1ccc(-c2c(C)c(OCCCOc3c(Cl)cc(OCC=C(Cl)Cl)cc3Cl)nn2C)cc1C | 100 | 100 | 87 |
| Cc1ccc(C)c(-c2c(C)c(OCCCOc3c(Cl)cc(OCC=C(Cl)Cl)cc3Cl)nn2C)c1 | 75 | 67 | 37 |
| CCc1ccc(-c2c(C)c(OCCCOc3c(Cl)cc(OCC=C(Cl)Cl)cc3Cl)nn2C)cc1 | 100 | 77 | 60 |
| Cc1c(OCCCOc2c(Cl)cc(OCC=C(Cl)Cl)cc2Cl)nn(C)c1-c1ccc(C(C)C)cc1 | 100 | 100 | 85 |
| Cc1c(OCCCOc2c(Cl)cc(OCC=C(Cl)Cl)cc2Cl)nn(C)c1-c1ccc(C(C)(C)C)cc1 | 100 | 87 | 30 |
| Cc1c(OCCCOc2c(Cl)cc(OCC=C(Cl)Cl)cc2Cl)nn(C)c1-c1ccc(F)cc1 | 100 | 80 | 30 |
| Cc1c(OCCCOc2c(Cl)cc(OCC=C(Cl)Cl)cc2Cl)nn(C)c1-c1ccc(Cl)cc1 | 80 | 50 | 20 |
| Cc1c(OCCCOc2c(Cl)cc(OCC=C(Cl)Cl)cc2Cl)nn(C)c1-c1ccc(Cl)cc1Cl | 85 | 80 | 67 |
| Cc1c(OCCCOc2c(Cl)cc(OCC=C(Cl)Cl)cc2Cl)nn(C)c1-c1ccc(Cl)c(Cl)c1 | 100 | 75 | 50 |
| COc1ccc(-c2c(C)c(OCCCOc3c(Cl)cc(OCC=C(Cl)Cl)cc3Cl)nn2C)cc1 | 100 | 40 | 10 |
| CCOc1ccc(-c2c(C)c(OCCCOc3c(Cl)cc(OCC=C(Cl)Cl)cc3Cl)nn2C)cc1 | 100 | 20 | 10 |
| Cn1nc(OCCCOc2c(Cl)cc(OCC=C(Cl)Cl)cc2Cl)cc1-c1ccccc1 | 100 | 100 | 75 |
| Cc1ccccc1-c1cc(OCCCOc2c(Cl)cc(OCC=C(Cl)Cl)cc2Cl)nn1C | 100 | 70 | 40 |
| Cc1ccc(-c2cc(OCCCOc3c(Cl)cc(OCC=C(Cl)Cl)cc3Cl)nn2C)c(C)c1 | 90 | 50 | 30 |
| FC(F)(F)c1ccc(OCCCOc2c(Cl)cc(OCC=C(Cl)Cl)cc2Cl)nc1 [PYRIDALYL] | 100 | 100 | 65 |
